Test results as given in patent US12269811B2, “Synthesis of omecamtiv mecarbil” (Amgen Inc., priority 2017, dated 2025).
Converted amounts (≈) assume the structure as drawn.

Experiments:
Type in all cases: physicochemical
[1] = Piperazine levels upon storage
[2] = Dynamic vapor sorption (DVS) isothermal plot of PMEC salt forms; details: FIG. 1; for DVS weight increase onset: relative humidity at onset of weight increase
Procedure: The DVS weight increase onset for each salt was measured as noted—35% relative humidity (RH) for the hemi-sulfate; 50% RH for the acetate; and 65% RH for the phosphate hydrate. The phosphate hydrate is termed phosphate or hemi-phosphate and the hemi-sulfate is termed sulfate or hemi-sulfate in the figure.

[3] = Solubility in isopropanol

Structure (SMILES): COC(=O)N1CCNCC1 [PMEC freebase, methyl piperazine-1-carboxylate]
- piperazine levels upon storage ([1]; storage at 25° C.): up to 18 LC area %

Structure (SMILES): COC(=O)N1CCNCC1 [PMEC phosphate hydrate, methyl piperazine-1-carboxylate]
- hygroscopicity ([2]; compared with the sulfate and acetate salts): less hygroscopic than the corresponding sulfate and acetate salt
- DVS weight increase onset [2]: 65 % RH
- piperazine levels upon storage ([1]; upon storage, level <0.4 GC area %): do not increase upon storage

Structure (SMILES): COC(=O)N1CCNCC1 [acetate, methyl piperazine-1-carboxylate]
- DVS weight increase onset [2]: 50 % RH

Structure (SMILES): COC(=O)N1CCNCC1 [hemi-sulfate, methyl piperazine-1-carboxylate]
- DVS weight increase onset [2]: 35 % RH

Structure (SMILES): COC(=O)N1CCN(Cc2cccc(NC(=O)Nc3ccc(C)nc3)c2F)CC1 [omecamtiv mecarbil]
- solubility in isopropanol ([3]; 20° C.): about 10 mg/mL
- solubility ([3]; 20 °C, organic solvent or mixture): ~12 mg/mL (≈ 29.9 mM)
